# Measured values: paper PMC5487684, “Safety, Pharmacokinetics, and Antiviral Activity of a Novel HIV Antiviral, ABX464, in Treatment-Naive HIV-Infected Subjects in a Phase 2 Randomized, Controlled Study” (Antimicrobial Agents and Chemotherapy, 2017)
# Test system: HIV-infected subjects
# Experiment: Safety and tolerability (TEAEs, ECG, laboratory) after repeated oral administration, phase 2a study
# Type: in vivo, human
# Settings: for Subjects experiencing at least one TEAE: Abdominal pain / Subjects experiencing at least one TEAE: Arthralgia / Subjects experiencing at least one TEAE: Back pain / Subjects experiencing at least one TEAE: Diarrhea / Subjects experiencing at least one TEAE: Flank pain / Subjects experiencing at least one TEAE: Gastrointestinal disorders / Subjects experiencing at least one TEAE: Headache / Subjects experiencing at least one TEAE: Injury, poisoning, and procedural complications / Subjects experiencing at least one TEAE: Musculoskeletal and connective tissue disorders / Subjects experiencing at least one TEAE: Nausea / Subjects experiencing at least one TEAE: Neck pain / Subjects experiencing at least one TEAE: Nervous system disorders / Subjects experiencing at least one TEAE: Pain in extremity / Subjects experiencing at least one TEAE: Sciatica, back pain / Subjects experiencing at least one TEAE: Skin abrasion / Subjects experiencing at least one TEAE: Total / Subjects experiencing at least one TEAE: Upper abdominal pain / Subjects experiencing at least one TEAE: Vomiting: fasted
# Description: Participants were assigned to one of eight groups; each group (with one exception) included eight subjects receiving either ABX464 (n = 6) or the corresponding placebo (n = 2) according to a randomization code. […] In the present study with HIV-infected subjects, the first dose administered was 25 mg, given once or 3 times a day over a 2- to 3-week period. This initial dose was therefore considered safe for assessment of the safety and tolerability of ABX464 after repeated oral administrations in subjects infected by HIV and determination of the potential effect on the HIV viral load.
# The final dosing protocol for each of the eight groups was as follows: group 1, 25 mg every 3 days for 2 to 3 weeks under fasted conditions; group 2, 25 mg once a day (q.d.) for 2 to 3 weeks under fasted conditions; group 3, 50 mg once a day for 2 to 3 weeks under fasted conditions; group 4, 50 mg 3 times a day (t.i.d.) for 4 weeks under fed conditions; group 5, 75 mg once a day for 2 weeks under fed conditions; group 6, 100 mg once a day for 2 to 3 weeks under fasted conditions; group 7, 150 mg every 3 days for 2 to 3 weeks under fed conditions; and group 8, 150 mg once a day for 2 weeks under fed conditions. Per the study protocol, the treatment period was defined as 2 weeks. […] The decision to proceed to the next highest dose was determined by the data and safety monitoring board after review of the laboratory safety data, vital signs, ECGs, and adverse event reports from the group receiving the current dose after 2 weeks of treatment.
# Subjects were hospitalized from the day prior to the first dose to at least the morning of day 2. They were orally dosed with 25-mg capsules of ABX464 with 240 ml water under fed or fasted conditions. According to the group, subjects were dosed with 1, 2, 3, 4, or 6 capsules to deliver 25 mg, 50 mg, 75 mg, 100 mg, or 150 mg product, respectively, or the same number of placebo capsules.
# Safety assessments and laboratory tests were carried out according to the schedules described in Table S4 for groups dosed every day, every 3 days, and 3 times a day. Follow-up visits were scheduled for 7 days after the last dose and subsequently once every week in order to assess the elimination of the main ABX464 metabolite and to assess the viral load. Follow-up visits were terminated when the virus load was within 0.5 log of the baseline value or after 3 follow-up visits, whichever came first. Prior to the statistical analyses, AEs were coded using the Medical Dictionary for Regulatory Activities (MedDRA dictionary; last available version) in order to be tabulated by system organ class (SOC) and preferred term (PT). The AEs were analyzed according to the treatment emergence phase from the first study drug administration on day 1 up to 48 h after the last study drug administration. The number and percentage of subjects with at least one TEAE were tabulated by SOC and PT for each group and dose. The number of occurrences of TEAEs was also analyzed in the same way by SOC and PT for each group and dose, by grade of severity for each group and dose, and by level of causality to the study drug for each group and dose.
# [1] = Group 1 (n = 6), 25 mg every 3 days, Mild
# [2] = Group 1 (n = 6), 25 mg every 3 days, Moderate
# [3] = Group 2 (n = 6), 25 mg q.d., Mild
# [4] = Group 2 (n = 6), 25 mg q.d., Moderate
smiles,measurement,setting,value
FC(F)(F)Oc1ccc(Nc2ccc3cccc(Cl)c3n2)cc1 [ABX464],Nausea frequency,75 mg q.d.,66.7%
same,Subjects with a skin rash episode,"75 mg q.d. under fed conditions, one episode of moderate intensity",two
same,Subjects with vomiting episodes,150 mg every 3 days,50.0%
same,Nausea frequency,150 mg q.d.,100%
same,Subjects reporting vomiting,"16 subjects overall, no vomiting episodes in placebo",32%
same,Severity of adverse events,ABX464 treatment group,mild to moderate
same,TEAEs leading to treatment discontinuation,ABX464 treatment group,none of the TEAEs led to treatment discontinuation
same,Subjects reporting at least one episode of headache,ABX464 treatment groups,56%
same,Subjects experiencing at least one TEAE: Abdominal pain,[1],0 (0.0) No. (%)
same,Subjects experiencing at least one TEAE: Arthralgia,[1],0 (0.0) No. (%)
same,Subjects experiencing at least one TEAE: Back pain,[1],0 (0.0) No. (%)
same,Subjects experiencing at least one TEAE: Diarrhea,[1],0 (0.0) No. (%)
same,Subjects experiencing at least one TEAE: Flank pain,[1],0 (0.0) No. (%)
same,Subjects experiencing at least one TEAE: Gastrointestinal disorders,[1],2 (33.3) No. (%)
same,Subjects experiencing at least one TEAE: Headache,[1],0 (0.0) No. (%)
same,"Subjects experiencing at least one TEAE: Injury, poisoning, and procedural complications",[1],0 (0.0) No. (%)
same,Subjects experiencing at least one TEAE: Musculoskeletal and connective tissue disorders,[1],0 (0.0) No. (%)
same,Subjects experiencing at least one TEAE: Nausea,[1],1 (16.7) No. (%)
same,Subjects experiencing at least one TEAE: Neck pain,[1],0 (0.0) No. (%)
same,Subjects experiencing at least one TEAE: Nervous system disorders,[1],0 (0.0) No. (%)
same,Subjects experiencing at least one TEAE: Pain in extremity,[1],0 (0.0) No. (%)
same,"Subjects experiencing at least one TEAE: Sciatica, back pain",[1],0 (0.0) No. (%)
same,Subjects experiencing at least one TEAE: Skin abrasion,[1],0 (0.0) No. (%)
same,Subjects experiencing at least one TEAE: Total,[1],2 (33.3) No. (%)
same,Subjects experiencing at least one TEAE: Upper abdominal pain,[1],0 (0.0) No. (%)
same,Subjects experiencing at least one TEAE: Vomiting,[1],1 (16.7) No. (%)
same,Subjects experiencing at least one TEAE: Abdominal pain,[2],0 (0.0) No. (%)
same,Subjects experiencing at least one TEAE: Arthralgia,[2],0 (0.0) No. (%)
same,Subjects experiencing at least one TEAE: Back pain,[2],0 (0.0) No. (%)
same,Subjects experiencing at least one TEAE: Diarrhea,[2],0 (0.0) No. (%)
same,Subjects experiencing at least one TEAE: Flank pain,[2],0 (0.0) No. (%)
same,Subjects experiencing at least one TEAE: Headache,[2],0 (0.0) No. (%)
same,"Subjects experiencing at least one TEAE: Injury, poisoning, and procedural complications",[2],0 (0.0) No. (%)
same,Subjects experiencing at least one TEAE: Musculoskeletal and connective tissue disorders,[2],1 (16.7) No. (%)
same,Subjects experiencing at least one TEAE: Nausea,[2],0 (0.0) No. (%)
same,Subjects experiencing at least one TEAE: Neck pain,[2],0 (0.0) No. (%)
same,Subjects experiencing at least one TEAE: Nervous system disorders,[2],0 (0.0) No. (%)
same,Subjects experiencing at least one TEAE: Pain in extremity,[2],0 (0.0) No. (%)
same,"Subjects experiencing at least one TEAE: Sciatica, back pain",[2],1 (16.7) No. (%)
same,Subjects experiencing at least one TEAE: Skin abrasion,[2],0 (0.0) No. (%)
same,Subjects experiencing at least one TEAE: Total,[2],2 (33.3) No. (%)
same,Subjects experiencing at least one TEAE: Upper abdominal pain,[2],0 (0.0) No. (%)
same,Subjects experiencing at least one TEAE: Vomiting,[2],0 (0.0) No. (%)
same,Subjects experiencing at least one TEAE: Abdominal pain,[3],0 (0.0) No. (%)
same,Subjects experiencing at least one TEAE: Arthralgia,[3],0 (0.0) No. (%)
same,Subjects experiencing at least one TEAE: Back pain,[3],1 (16.7) No. (%)
same,Subjects experiencing at least one TEAE: Diarrhea,[3],1 (16.7) No. (%)
same,Subjects experiencing at least one TEAE: Flank pain,[3],0 (0.0) No. (%)
same,Subjects experiencing at least one TEAE: Gastrointestinal disorders,[3],2 (33.3) No. (%)
same,Subjects experiencing at least one TEAE: Headache,[3],1 (16.7) No. (%)
same,"Subjects experiencing at least one TEAE: Injury, poisoning, and procedural complications",[3],0 (0.0) No. (%)
same,Subjects experiencing at least one TEAE: Musculoskeletal and connective tissue disorders,[3],1 (16.7) No. (%)
same,Subjects experiencing at least one TEAE: Nausea,[3],0 (0.0) No. (%)
same,Subjects experiencing at least one TEAE: Neck pain,[3],0 (0.0) No. (%)
same,Subjects experiencing at least one TEAE: Nervous system disorders,[3],1 (16.7) No. (%)
same,Subjects experiencing at least one TEAE: Pain in extremity,[3],0 (0.0) No. (%)
same,"Subjects experiencing at least one TEAE: Sciatica, back pain",[3],0 (0.0) No. (%)
same,Subjects experiencing at least one TEAE: Skin abrasion,[3],0 (0.0) No. (%)
same,Subjects experiencing at least one TEAE: Total,[3],2 (33.3) No. (%)
same,Subjects experiencing at least one TEAE: Upper abdominal pain,[3],0 (0.0) No. (%)
same,Subjects experiencing at least one TEAE: Vomiting,[3],2 (33.3) No. (%)
same,Subjects experiencing at least one TEAE: Abdominal pain,[4],0 (0.0) No. (%)
same,Subjects experiencing at least one TEAE: Arthralgia,[4],0 (0.0) No. (%)
same,Subjects experiencing at least one TEAE: Back pain,[4],0 (0.0) No. (%)
same,Subjects experiencing at least one TEAE: Diarrhea,[4],0 (0.0) No. (%)
same,Subjects experiencing at least one TEAE: Flank pain,[4],0 (0.0) No. (%)
same,Subjects experiencing at least one TEAE: Headache,[4],0 (0.0) No. (%)
same,"Subjects experiencing at least one TEAE: Injury, poisoning, and procedural complications",[4],0 (0.0) No. (%)
same,Subjects experiencing at least one TEAE: Musculoskeletal and connective tissue disorders,[4],0 (0.0) No. (%)
same,Subjects experiencing at least one TEAE: Nausea,[4],0 (0.0) No. (%)
same,Subjects experiencing at least one TEAE: Neck pain,[4],0 (0.0) No. (%)
same,Subjects experiencing at least one TEAE: Nervous system disorders,[4],0 (0.0) No. (%)
same,Subjects experiencing at least one TEAE: Pain in extremity,[4],0 (0.0) No. (%)
same,"Subjects experiencing at least one TEAE: Sciatica, back pain",[4],0 (0.0) No. (%)
same,Subjects experiencing at least one TEAE: Skin abrasion,[4],0 (0.0) No. (%)
